The test deals with T1, recombinant active full-length human MEK7 (Homo sapiens, UniProt O14733).
T1 construct: recombinant active full-length human MEK7 (Carna Biosciences); purchased Carna Biosciences
T1 sequence (O14733 1-419): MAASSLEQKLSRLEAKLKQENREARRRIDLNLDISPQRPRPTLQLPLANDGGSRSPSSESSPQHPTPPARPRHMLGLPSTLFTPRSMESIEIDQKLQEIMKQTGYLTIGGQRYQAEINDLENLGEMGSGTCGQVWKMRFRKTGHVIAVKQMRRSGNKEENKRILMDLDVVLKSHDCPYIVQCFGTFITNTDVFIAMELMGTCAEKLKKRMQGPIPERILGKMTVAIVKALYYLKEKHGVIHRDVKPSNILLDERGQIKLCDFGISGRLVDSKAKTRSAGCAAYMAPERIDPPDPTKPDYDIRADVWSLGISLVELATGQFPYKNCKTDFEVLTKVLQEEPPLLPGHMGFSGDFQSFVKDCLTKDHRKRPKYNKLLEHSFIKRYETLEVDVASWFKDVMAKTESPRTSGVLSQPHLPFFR
In words: ADP-Glo kinase activity assay, MEK7 with JNK1 substrate. In kind it is biochemical. The note with it: for in vitro activity against MAP2K7, in words: ADP-Glo assay, comparison within the series. The protocol:
Procedure for a 5 μL Kinase reaction using the ADP-Glo Kinase Assay Kit from Promega. Staurosporine was used as the positive control, and DMSO (vehicle) was employed as the negative control. Activity of recombinant active full-length human MEK7 (Carna Biosciences) was measured with recombinant full-length human substrate JNK1 (MAPK8). Using a Mantis, a mixture of MEK7 and JNK1 was dispensed into a 384-well low volume white Proxiplate. For each well, 4 ng of MEK7 and 600 ng of JNK1 in kinase buffer (CST) were used, accounting for 1 μL of this mixture per well. Inhibitor was prepared in a DMSO solution (40 mM). A dose-response dilution was performed in a 384-well Echo transfer plate. Using an Echo Access, 10 nL of each solution was dispensed into the same 384-well low volume white Proxiplate as above. This mixture was allowed to incubate for 30 minutes at room temperature. Using a Mantis, 1 uL of an 8 μM ATP solution was added to each well, and the plate was allowed to incubate for another 1 hour at room temperature. Using the Mantis again, 4 μL of ADP Glo Reagent was dispensed into each well, and the plate was allowed to incubate for 45 min at room temperature. Finally, 9 μL of Kinase Detection Reagent was added manually to each well, and the plate was allowed to incubate for 45 minutes at room temperature. Luminescence was read on a Synergy Neo2 Plate Reader with filter cubes 3 and 114. Integration time was set to 0.20 seconds, gain set to 160, and read height set at 6 mm. All experiments were performed in triplicate on the plate, and at least in one separate technical duplicate was performed.
MEK4 selectivity was performed in the same manner with activated MEK4 (Carna Biosciences). Here, p-38α was employed as the kinase substrate in lieu of JNK1 due to the availability of reagents. […] To probe the ATP-competitive nature of 25, this compound was subjected to a similar assay forgoing the 30 minute incubation time described above (STAR Protocols 2021, 2, 100717). The results are tabulated below in compound characterization. Potency determined by duplicate of triplicates corresponded to a IC50 value, which is in line with the ratio difference observed among other covalent inhibitors (for examples, see Cell Chem. Biol. 2020, 27, 1285).
Background: ADP-Glo turns the ADP formed in a reaction into a luminescent signal.

Where [1] appears, read: 30 min preincubation, overall value of two experiments, read-out: MEK7 IC50.
The mark [2] stands for this setting: MEK7 IC50, first experiment (IC50±SEM, n=3), 30 min preincubation, first value in brackets.
[3] abbreviates: MEK7 IC50, second experiment (IC50±SEM, n=3), 30 min preincubation, second value in brackets.
The mark [4] stands for this setting: 30 min preincubation, read-out: MEK7 IC50.
Setting [5] is: 30 min preincubation, first value in brackets.
Where [6] appears, read: read-out: MEK7 IC50, second experiment (IC50±SEM, n=3), 30 min preincubation, second value in brackets.

Where two headings read alike, the source gives them in different places.

For the compound `CC=CC(=O)Nc1cccc(Oc2cc(NC)ncn2)c1` (mixture of isomers) [Compound 10, (E/Z)—N-(3-((6-(methylamino)pyrimidin-4-yl)oxy)phenyl) but-2-enamide], the “in vitro activity against MAP2K7, in words” value (shortened to “in vitro activity”) is on record as “less potent”. The IC50 (usually the concentration at which inhibition is half-maximal) under setting [1] was over 80000 nM.

With `CNc1cc(Oc2ccc(NC(=O)CCl)cc2)ncn1` [Compound 6, 2-chloro-N-(4-((6-(methylamino)pyrimidin-4-yl)oxy)phenyl)acetamide], the “in vitro activity” value is recorded as “less active than compound 8”. For the same compound, the IC50 under setting [1] was 1800 nM. Further, the IC50 under setting [2] is 1500 ± 210 nM. Also, under setting [3], the IC50 came out at 2100 ± 1100 nM.

On to `C=CC(=O)Nc1ccc(Oc2cc(NC)ncn2)cc1` [Compound 7, N-(4-((6-(methylamino)pyrimidin-4-yl)oxy)phenyl) acrylamide], for which the “in vitro activity” value is reported as “less active than compound 8”. Moreover, under setting [1], the IC50 turned out to be 8800 nM. For the same compound, the IC50 under setting [4] was found to be 60 nM. Besides, under setting [2], the IC50 is 7700 ± 1300 nM. For the same compound, under setting [3], the IC50 worked out at 9900 ± 1200 nM.

With `CNc1cc(Oc2cccc(NC(=O)C(C)(C)CCl)c2)ncn1` [Compound 11, 3-chloro-2,2-dimethyl-N-(3-((6-(methylamino)pyrimidin-4-yl)oxy)phenyl) propenamide], the “in vitro activity” value is “less potent”.

Consider `CNc1cc(Oc2cccc(NC(=O)CF)c2)ncn1` [Compound 12, 2-fluoro-N-(3-((6-(methylamino)pyrimidin-4-yl)oxy)phenyl)acetamide], for which the “in vitro activity” value was “attenuated activity”. Also, the IC50 under setting [5] turned out to be 7700 ± 20000 nM. Moreover, the IC50 under setting [1] worked out at 7800 nM. Under setting [6], the IC50 is 7800 ± 5000 nM.

As to `CNc1cc(Oc2cccc(NC(=O)COC)c2)ncn1` [Compound 13, 2-methoxy-N-(3-((6-(methylamino)pyrimidin-4-yl)oxy)phenyl)acetamide], the “in vitro activity” value is listed as “attenuated activity”.

With `O=C(CCl)Nc1cccc(Oc2cc(N3CCOCC3)ncn2)c1` [Compound 14, 2-chloro-N-(3-((6-morpholinopyrimidin-4-yl)oxy)phenyl)acetamide], the MEK7 IC50, first experiment (IC50±SEM, n=3) under setting [5] was 1.3 ± 3.4 µM.

As to `O=C(CCl)Nc1cccc(Oc2cc(NCCc3c[nH]c4ccccc34)ncn2)c1` [Compound 15, N-(3-((6-((2-(1H-indol-3-yl)ethyl)amino)pyrimidin-4-yl)oxy)phenyl)-2-chloroacetamide], the “in vitro activity” value was “greatest potency”. For the same compound, the IC50 under setting [1] came out at 260 nM. Under setting [2], the IC50 is 300 ± 92 nM. In addition, the IC50 under setting [3] stood at 210 ± 180 nM.

For `O=C(CCl)Nc1cccc(Oc2cc(NC3CCCC3)ncn2)c1` [Compound 16, 2-chloro-N-(3-((6-(cyclopentylamino)pyrimidin-4-yl)oxy)phenyl)acetamide], the IC50 was 270 nM under setting [1], 350 ± 150 nM under setting [2] and 190 ± 190 nM under setting [3].

Regarding `O=C(CCl)Nc1cccc(Oc2cc(NCCc3ccccc3)ncn2)c1` [Compound 18], the IC50 is, setting by setting: under setting [1], 1200 nM; under setting [2], 730 ± 220 nM; under setting [3], 1700 nM.

Regarding `O=C(CCl)Nc1cccc(Oc2cc(NCCc3ccc(Cl)cc3)ncn2)c1` [Compound 19, 2-chloro-N-(3-((6-((4-chlorophenethyl)amino)pyrimidin-4-yl)oxy)phenyl)acetamide], the “in vitro activity” value is “greatest potency”. Further, under setting [1], the IC50 was found to be 66 nM. In addition, the IC50 under setting [2] amounted to 53 nM. In addition, the IC50 under setting [3] was 78 ± 91 nM.

On to `O=C(CCl)Nc1cccc(Oc2cc(NCCc3ccc(F)cc3)ncn2)c1` [Compound 20, 2-chloro-N-(3-((6-((4-fluorophenethyl)amino)pyrimidin-4-yl)oxy)phenyl)acetamide], for which the IC50 turned out to be 1200 nM under setting [1], 710 ± 400 nM under setting [2] and 1600 ± 1800 nM under setting [3].

With `COc1ccc(CCNc2cc(Oc3cccc(NC(=O)CCl)c3)ncn2)cc1` [Compound 21, 2-chloro-N-(3-((6-((4-methoxyphenethyl)amino)pyrimidin-4-yl)oxy)phenyl)acetamide], the concentration for half-maximal inhibition (IC50) by setting is: under setting [1], 930 nM; under setting [2], 1200 ± 330 nM; under setting [3], 660 ± 310 nM.

In the case of `COc1ccc(CCNc2cc(Oc3cccc(NC(=O)CCl)c3)ncn2)cc1OC` [Compound 22, 2-chloro-N-(3-((6-((3,4-dimethoxyphenethyl)amino)pyrimidin-4-yl)oxy)phenyl)acetamide], the IC50 came out at 1700 nM under setting [1], 1900 ± 550 nM under setting [2] and 1400 ± 970 nM under setting [3].

Consider `O=C(CCl)Nc1cccc(Oc2cc(NCCc3ccc4c(c3)OCO4)ncn2)c1` [Compound 23, N-(3-((6-((2-(benzo[d][1,3]dioxol-5-yl)ethyl)amino)pyrimidin-4-yl)oxy)phenyl)-2-chloroacetamide], for which the IC50 stood at 1100 nM under setting [1], 1400 ± 810 nM under setting [2] and 830 ± 680 nM under setting [3].

For the compound `CN(Cc1ccccc1)c1cc(Oc2cccc(NC(=O)CCl)c2)ncn1` [Compound 24, N-(3-((6-(benzyl(methyl)amino)pyrimidin-4-yl)oxy)phenyl)-2-chloroacetamide], the “in vitro activity” value is on record as “ten-fold attenuation”. Also, under setting [1], the IC50 was determined as 110 nM. Moreover, the IC50 under setting [2] worked out at 140 ± 87 nM. Besides, the IC50 under setting [3] was found to be 87 ± 42 nM.

As to `O=C(CCl)Nc1cccc(Oc2cc(NCc3cc(F)cc(F)c3)ncn2)c1` [Compound 26, 2-chloro-N-(3-((6-((3,5-difluorobenzyl)amino)pyrimidin-4-yl)oxy)phenyl)acetamide], the IC50 under setting [1] came out at 74 nM and the IC50 under setting [2] came to 110 nM.

With `O=C(CCl)Nc1cccc(Oc2cc(NCc3ccc(F)cc3F)ncn2)c1` [Compound 27, 2-chloro-N-(3-((6-((2,4-difluorobenzyl)amino)pyrimidin-4-yl)oxy)phenyl)acetamide], the IC50 reads like this: under setting [1], 360 nM; under setting [2], 140 nM; under setting [3], 580 ± 200 nM.

As to `O=C(CCl)Nc1cccc(Oc2cc(NCc3c(F)ccc(F)c3F)ncn2)c1` [Compound 28, 2-chloro-N-(3-((6-((2,3,6-trifluorobenzyl)amino)pyrimidin-4-yl)oxy)phenyl)acetamide], the IC50 runs as follows: under setting [1], 110 nM; under setting [2], 880 ± 29 nM; under setting [3], 140 ± 44 nM.

For the compound `O=C(CCl)Nc1cccc(Oc2cc(NCc3ccc(F)c(F)c3)ncn2)c1` [Compound 29, 2-chloro-N-(3-((6-((3,4-difluorobenzyl)amino)pyrimidin-4-yl)oxy)phenyl)acetamide], the IC50 under setting [1] turned out to be 42 nM; the 50% inhibitory concentration (IC50) under setting [4] stood at 42 nM; the IC50 (read-out: MEK7 IC50, first experiment (IC50±SEM, n=3), 30 min preincubation, first value in brackets) was 42 ± 36 nM; the IC50 under setting [6] worked out at 42 ± 58 nM.

`O=C(CCl)Nc1cccc(Oc2cc(NCc3ccccc3C(F)(F)F)ncn2)c1` [Compound 30, 2-chloro-N-(3-((6-((2-(trifluoromethyl)benzyl)amino)pyrimidin-4-yl)oxy)phenyl)acetamide]: the “in vitro activity” value is “towards the micromolar range”. Also, the IC50 under setting [1] was 1200 nM. For the same compound, the IC50 under setting [2] stood at 1100 ± 480 nM. Besides, under setting [3], the IC50 turned out to be 1300 ± 550 nM.

Regarding `O=C(CCl)Nc1cccc(Oc2cc(NCc3ccc(F)c(C(F)(F)F)c3)ncn2)c1` [Compound 31, 2-chloro-N-(3-((6-((4-fluoro-3-(trifluoromethyl)benzyl)amino)pyrimidin-4-yl)oxy)phenyl)acetamide], the IC50 reads like this: under setting [1], 3000 nM; under setting [2], 4200 ± 2500 nM; under setting [3], 1800 ± 1200 nM.
